Test results: ChEMBL document CHEMBL1137572, “CYP2C9 structure-metabolism relationships: substrates, inhibitors, and metabolites” (J Med Chem, 2007)

target: Cytochrome P450 2C9 (Homo sapiens, UniProt P11712); test: Inhibition of recombinant CYP2C9 by fluorescence inhibition assay; assay type: ADME
Sequence (P11712 whole entry): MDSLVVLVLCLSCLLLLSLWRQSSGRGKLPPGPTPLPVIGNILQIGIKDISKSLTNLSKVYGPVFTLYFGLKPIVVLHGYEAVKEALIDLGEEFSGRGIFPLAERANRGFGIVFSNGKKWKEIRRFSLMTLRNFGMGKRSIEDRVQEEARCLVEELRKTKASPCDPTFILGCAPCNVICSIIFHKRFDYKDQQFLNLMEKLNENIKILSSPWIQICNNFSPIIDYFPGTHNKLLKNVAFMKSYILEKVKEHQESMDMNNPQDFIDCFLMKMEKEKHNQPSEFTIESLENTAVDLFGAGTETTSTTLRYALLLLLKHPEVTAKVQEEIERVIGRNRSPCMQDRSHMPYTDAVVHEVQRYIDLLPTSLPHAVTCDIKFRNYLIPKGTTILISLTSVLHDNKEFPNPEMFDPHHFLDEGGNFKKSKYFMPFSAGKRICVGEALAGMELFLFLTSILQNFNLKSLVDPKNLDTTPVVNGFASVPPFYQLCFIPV

SMILES | IC50 [µM]
O=C(O)Cc1ccc(-n2nc(C(F)(F)F)cc2-c2ccc(C(F)(F)F)cc2)cc1 | 25
CCOC(=O)c1ccc(-n2nc(C(F)(F)F)cc2-c2ccc(C)cc2)cc1 | > 40
CCOC(=O)c1ccc(-n2nc(C(F)(F)F)cc2-c2ccc(C(F)(F)F)cc2)cc1 | > 40
Cc1ccc(-c2cc(C(F)(F)F)nn2-c2ccc(CC(=O)O)cc2)cc1 | > 40
Cc1ccc(-c2cc(C(=O)O)nn2-c2ccc(S(N)(=O)=O)cc2)cc1 | > 40
O=C(O)c1ccc(-n2nc(C(F)(F)F)cc2-c2ccc(C(F)(F)F)cc2)cc1 | > 40
Cc1ccc(-c2cc(-c3ccccc3)nn2-c2ccc(S(N)(=O)=O)cc2)cc1 | 16

Further lines, results first:

IC50 [µM] | SMILES
26 | Cc1ccc(-c2cc(C(F)(F)F)nn2-c2ccc([S+](C)[O-])cc2)cc1 (centres undefined)
> 40 | CSc1ccc(-n2nc(C(F)(F)F)cc2-c2ccc(C)cc2)cc1
16 | Cc1ccc(-c2cc(C(F)(F)F)nn2-c2ccc(S(C)(=O)=O)cc2)cc1
> 40 | Cc1ccc(-c2cc(C(F)(F)F)nn2-c2ccc(C(=O)O)cc2)cc1
> 40 | Cc1ccc(-c2cc(C(F)(F)F)nn2-c2ccc(C)cc2)cc1
17 | NS(=O)(=O)c1ccc(-n2nc(C(F)(F)F)cc2-c2ccc(C(F)(F)F)cc2)cc1
10 | Cc1ccc(-c2cc(C(F)(F)F)nn2-c2ccc(S(N)(=O)=O)cc2)cc1 [CELECOXIB]
